Earlier results in patent US20050049255A1, “Therapeutic combinations” (Pfizer Inc, priority 2003, published 2005).

System: dysmenorrhoea

Row | Compound | efficacy in the treatment of dysmenorrhoea (given intravenously, pilot study) | intensity of pain in women with dysmenorrhoea (double blind, randomised placebo controlled cross over trial, oral)
1 | 1-deamino-2-D-Tyr (Oet)-4-Thr-8-Orn-oxytocin | effective in the treatment of dysmenorrhoea | 
2 | COc1ccc(S(=O)(=O)N2c3ccc(Cl)cc3[C@](O)(c3ccccc3Cl)[C@@H]2C(=O)N2CCC[C@H]2C(N)=O)cc1OC [Relcovaptan] |  | dose dependently reduced the intensity of pain
